# Measurements published in ChEMBL document CHEMBL5104175, “Scaffold hopping from indoles to indazoles yields dual MCL-1/BCL-2 inhibitors from MCL-1 selective leads” (RSC Med Chem, 2022).
# Key:
# [1] = target: Induced myeloid leukemia cell differentiation protein Mcl-1 (Homo sapiens, UniProt Q07820); assay: Inhibition of MCL-1 (unknown origin) by fluorescence polarization competition assay
# [2] = target: Apoptosis regulator Bcl-2 (Homo sapiens, UniProt P10415); assay: Inhibition of BCL-2 (unknown origin) by fluorescence polarization competition assay
# Chain of Apoptosis regulator Bcl-2 (P10415 whole entry): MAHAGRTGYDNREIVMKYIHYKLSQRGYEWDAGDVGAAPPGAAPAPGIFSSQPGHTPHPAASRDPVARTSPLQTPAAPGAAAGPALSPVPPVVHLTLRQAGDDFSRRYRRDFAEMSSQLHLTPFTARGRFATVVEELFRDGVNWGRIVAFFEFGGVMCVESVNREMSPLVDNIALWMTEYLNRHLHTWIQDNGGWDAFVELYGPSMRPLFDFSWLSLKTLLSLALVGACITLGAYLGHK
# Bcl-2-like protein 1 = Bcl-2-like protein 1 (Homo sapiens, UniProt Q07817); assay: Inhibition of BCL-xL (unknown origin) by fluorescence polarization competition assay
# Chain of Bcl-2-like protein 1 (Q07817 whole entry): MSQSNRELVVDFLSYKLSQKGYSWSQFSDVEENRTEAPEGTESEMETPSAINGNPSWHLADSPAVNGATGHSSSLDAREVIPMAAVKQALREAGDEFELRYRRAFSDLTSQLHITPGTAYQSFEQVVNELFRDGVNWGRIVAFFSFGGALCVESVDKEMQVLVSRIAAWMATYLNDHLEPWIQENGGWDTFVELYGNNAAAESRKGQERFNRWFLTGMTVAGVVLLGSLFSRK
# Chain of Induced myeloid leukemia cell differentiation protein Mcl-1 (Q07820 whole entry): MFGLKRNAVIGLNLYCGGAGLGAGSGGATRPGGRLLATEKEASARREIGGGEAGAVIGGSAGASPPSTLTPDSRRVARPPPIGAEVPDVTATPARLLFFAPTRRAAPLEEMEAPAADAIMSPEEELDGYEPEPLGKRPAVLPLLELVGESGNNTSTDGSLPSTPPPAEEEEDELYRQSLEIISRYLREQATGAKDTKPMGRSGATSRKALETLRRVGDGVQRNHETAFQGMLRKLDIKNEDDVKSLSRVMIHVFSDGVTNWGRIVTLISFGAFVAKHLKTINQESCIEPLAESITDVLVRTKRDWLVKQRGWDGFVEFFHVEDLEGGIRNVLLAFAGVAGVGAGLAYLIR
Ki [1] [nM],Ki [2] [nM],Ki (Bcl-2-like protein 1) [µM],Compound
1460,460,> 10,Cc1cc(Oc2ccc(Cn3nc4ccc(Cl)cc4c3C(=O)NS(=O)(=O)c3ccc(NCCc4cccnc4)c([N+](=O)[O-])c3)cc2)cc(C)c1Cl
1950,710,7.41,Cc1cc(Oc2ccc(Cn3nc4ccc(Cl)cc4c3C(=O)NS(=O)(=O)c3ccc([N+](=O)[O-])c(NCc4ccn(C)n4)c3)cc2)cc(C)c1Cl
1680,960,> 10,Cc1cc(Oc2ccc(Cn3nc4ccc(Cl)cc4c3C(=O)NS(=O)(=O)c3ccc([N+](=O)[O-])c(NCc4ccco4)c3)cc2)cc(C)c1Cl
> 10000,,,Cc1cc(OCCCn2c(C(=O)O)nc3ccccc32)cc(C)c1Cl
1280,620,3.4,Cc1cc(Oc2ccc(Cn3nc4ccc(Cl)cc4c3C(=O)NS(=O)(=O)c3ccc(NCCc4ccco4)c([N+](=O)[O-])c3)cc2)cc(C)c1Cl
1200,510,> 10,Cc1cc(Oc2ccc(Cn3nc4ccc(Cl)cc4c3C(=O)NS(=O)(=O)c3ccc(Cl)cc3)cc2)cc(C)c1Cl
1770,660,> 10,Cc1cc(Oc2ccc(Cn3nc4ccc(Cl)cc4c3C(=O)NS(=O)(=O)c3ccc(NCCc4ccncc4)c([N+](=O)[O-])c3)cc2)cc(C)c1Cl
1320,530,7.99,Cc1cc(Oc2ccc(Cn3nc4ccc(Cl)cc4c3C(=O)NS(=O)(=O)c3ccc(N4CCOCC4)c([N+](=O)[O-])c3)cc2)cc(C)c1Cl
> 10000,,,Cc1cc(OCCn2nc3ccc(Cl)cc3c2C(=O)O)cc(C)c1Cl
1300,570,> 10,Cc1cc(Oc2ccc(Cn3nc4ccc(Cl)cc4c3C(=O)NS(=O)(=O)c3ccc(NCc4ccco4)c([N+](=O)[O-])c3)cc2)cc(C)c1Cl
1420,770,,Cc1cc(Oc2ccc(Cn3nc4ccc(Cl)cc4c3C(=O)NS(=O)(=O)c3ccc([N+](=O)[O-])c(NCCc4ccncc4)c3)cc2)cc(C)c1Cl
1650,1520,> 10,Cc1cc(Oc2ccc(Cn3nc4ccc(Cl)cc4c3C(=O)NS(=O)(=O)c3ccc(NCc4ccncc4)c([N+](=O)[O-])c3)cc2)cc(C)c1Cl
2300,900,6.66,Cc1cc(Oc2ccc(Cn3nc4ccc(Cl)cc4c3C(=O)NS(=O)(=O)c3ccc([N+](=O)[O-])c(N4CCOCC4)c3)cc2)cc(C)c1Cl
1120,1180,4.42,Cc1cc(Oc2ccc(Cn3nc4ccc(Cl)cc4c3C(=O)NS(=O)(=O)c3ccc(NCc4cccnc4)c([N+](=O)[O-])c3)cc2)cc(C)c1Cl
1570,600,3.45,Cc1cc(Oc2ccc(Cn3nc4ccc(Cl)cc4c3C(=O)NS(=O)(=O)c3ccc(NCc4ccn(C)n4)c([N+](=O)[O-])c3)cc2)cc(C)c1Cl
1460,460,> 10,Cc1cc(Oc2ccc(Cn3nc4ccc(Cl)cc4c3C(=O)NS(=O)(=O)c3ccc([N+](=O)[O-])c(NCCc4cccnc4)c3)cc2)cc(C)c1Cl
1360,710,> 10,Cc1cc(Oc2ccc(Cn3nc4ccc(Cl)cc4c3C(=O)NS(=O)(=O)c3ccc([N+](=O)[O-])c(NCc4ccncc4)c3)cc2)cc(C)c1Cl
1000,1220,> 10,Cc1cc(Oc2ccc(Cn3nc4ccc(Cl)cc4c3C(=O)NS(=O)(=O)c3ccc([N+](=O)[O-])c(NCc4cccnc4)c3)cc2)cc(C)c1Cl
1610,420,,Cc1cc(Oc2ccc(Cn3nc4ccc(Cl)cc4c3C(=O)NS(=O)(=O)c3ccc(NCCN4CCOCC4)c([N+](=O)[O-])c3)cc2)cc(C)c1Cl
> 10000,,,Cc1cc(OCCCn2nc3ccc(Cl)cc3c2C(=O)O)cc(C)c1Cl
2160,840,> 10,Cc1cc(Oc2ccc(Cn3nc4ccc(Cl)cc4c3C(=O)NS(=O)(=O)c3ccc([N+](=O)[O-])c(NCCc4ccco4)c3)cc2)cc(C)c1Cl

Compound,Ki [1] [nM],Ki [2] [nM],Ki (Bcl-2-like protein 1) [µM]
Cc1cc(Oc2ccc(Cn3nc(C(=O)O)c4cc(Cl)ccc43)cc2)cc(C)c1Cl,2280,,
